The text below walks through data of US9675652B2, “Compositions and methods to relieve chronic diseases symptoms” (priority 2011, dated 2017).

The series has as its system Hep G2.2.15 cells. Description: Cell viability by MTT, Hep G2.2.15 cells. It is filed as cell-based, human. The method, then:
The Hep G2.2.15 cells were seeded at 3×10^4 cells/well into 96-well culture plates and incubated at 37° C. in 5% CO2 overnight. After 3 to 4 days, the confluent cultures were cultured at 37° C. for another 3 to 5 days for HBV surface antigen (HBsAg) and HBV e-antigen (HBeAg) induction. Various concentrations of test articles including the positive control substance were then added during the 72 hrs induction period. The cultured media were harvested by centrifugation and the levels of HBsAg and HBeAg were analyzed with commercial enzyme-linked immunosorbant assay (ELISA) kits for HBsAg qualitative testing (General Biologicals Corp., SURASE B-96 (TMB)) and that for HBeAg qualitative testing (General Biologicals Corp., EASE BN-96 (TMB)), respectively. The activity expressed in terms of the efficiency of antigen secretion in percentage (hereinafter referred to as “relative activity”) was calculated with the equation Relative activity (%)=The ratio of the amount of antigen in the cultured medium with treatment to that without treatment×100.
Cell viability was assayed by the MTT method.

For the compound `CC(C)(C)C(=O)OCOP(=O)(COCCn1cnc2c(N)ncnc21)OCOC(=O)C(C)(C)C` [Adefovir, Adefovir dipivoxil], the “MTT (+) drug/(−) drug (Ratio), cytotoxicity” value (0.2 uM) was determined as 0.961 and the “MTT (+) drug/(−) drug (Ratio), cytotoxicity” value (1 uM) is on record as 0.953.
